The values below come from patent publication US20100234377A1 (priority 2007, published 2010).

Read-outs that look alike come from different tables or passages of the source. Some results are limits rather than exact numbers.

Data set [1] addresses T1, human Prostaglandin D Synthase (GST2) (Homo sapiens, UniProt O60760).
T1 construct: the open reading frame of human Prostaglandin D Synthase was amplified from cDNA; made in house; host or cells: E. coli TOP10F'
Briefly: Homogeneous biochemical assay of human Prostaglandin D Synthase (GST2) based on its glutathion-S-transferase activity (GSH conjugation to monochlorobimane, fluorescence). A digest of the protocol:
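N-His-tagged human PGD synthase from E. coli, assayed via its GST activity: GSH conjugation to monochlorobimane in 50 mM MES/KOH pH 6.1, 0.7 mM GSH, 2 mM MgCl2. Compounds at final picomolar to triple-digit micromolar concentrations.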

In another data set the target is K+ATP channel (Rattus norvegicus, UniProt Q09429). The experiment in a line: KATP channel receptor binding assay ([3H]glibenclamide). To be noted: [3H]glibenclamide 0.1 nM, rat cerebral cortex; for inhibition at 10 µM: Table 1, 10 μM compound concentration, read-out: K^+ATP Channel (% Inhibition of Control Specific Binding); for K+ATP Channel (% Inhibition of Control Specific Binding): Table 3. The procedure:
KATP Channel Mediated Binding Assay
The compounds of Comparative Examples I to XII and Compounds 59, 30, 22, 76 and 69 were tested for their effects in an in vitro receptor binding KATP channel assay.
(§1) The specific ligand binding to the receptor is defined as the difference between the total binding and the non-specific binding determined in the presence of an excess of unlabelled ligand. The results are expressed as a percent inhibition of control specific binding obtained in the presence of the test compounds.
(§2) In each experiment, the respective reference compound was tested concurrently with the test compounds in order to assess the assay suitability. It was tested at several concentrations (for IC50 value determination), and the data were compared with historical values.

For another data set, the target named is T2, PPARγ (h) (Homo sapiens, UniProt P37231).
T2 construct: host or cells: E. coli
T2 sequence (P37231 1-505): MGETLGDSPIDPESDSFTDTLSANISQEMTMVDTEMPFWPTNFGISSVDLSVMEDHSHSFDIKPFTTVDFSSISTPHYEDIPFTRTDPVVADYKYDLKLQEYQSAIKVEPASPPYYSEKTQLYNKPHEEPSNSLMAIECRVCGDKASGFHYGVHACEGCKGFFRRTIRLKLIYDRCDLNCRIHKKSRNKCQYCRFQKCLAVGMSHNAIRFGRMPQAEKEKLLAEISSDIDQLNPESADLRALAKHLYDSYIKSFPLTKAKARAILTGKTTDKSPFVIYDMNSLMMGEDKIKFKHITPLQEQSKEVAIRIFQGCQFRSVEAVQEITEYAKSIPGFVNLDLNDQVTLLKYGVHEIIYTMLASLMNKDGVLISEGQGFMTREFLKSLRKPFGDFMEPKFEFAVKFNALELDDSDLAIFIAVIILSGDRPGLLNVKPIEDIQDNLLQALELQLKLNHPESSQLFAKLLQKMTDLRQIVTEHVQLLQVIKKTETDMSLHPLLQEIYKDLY
The experiment in a line: PPARγ receptor binding assay ([3H]rosiglitazone). To be noted: Table 3; [3H]rosiglitazone 10 nM, human recombinant.
Description: Selected GST2 Inhibitors Screened Against PPARγ and KATP Channel Modulator Assays
Selected GST2 inhibitors of General Formula (I) were screened in a PPARγ assay to determine their modulator effects.
as §1, §2

The test system of data set [2] is B6.V Lep^ob mice (ob/ob mice). The experiment in a line: Pharmacological study: body weight and food intake of treated ob/ob mice. The data set is classed as in vivo, mouse. The following applies: male ob/ob mice, 120 mg/kg/day by oral gavage, 12 days of treatment, versus vehicle. How it is done: FIG. 1 is a body weight curve graph which plots the body weight and food intake of mice over time. Some of the mice are given food only whereas some are given food together with Compound 22 below.
16 Male ob/ob mice were obtained from Charles River in Belgium at an approximate age of 6 weeks and with an approximate mean body weight of 35 g at the beginning of substance administration. Mice were housed 4 per cage at a temperature of 23° C.±1 and a day/night cycle of 14/10 hours (05:00-19:00-05:00), with ad libitum access to standard chow and tap water. Mice were allowed to adapt to these conditions for 8 days prior to the start of treatment. Animals were administered substance by oral gavage in the morning at 07:00, immediately after determining body weight and food consumption. In the evening substance was administered at 19:00. One group of 8 animals were administered vehicle, 0.3% methylcellulose in saline, and the second group of 8 animals were administered Compound 22 (120 mg/kg/day) suspended in the vehicle. Body weight and food consumption were recorded daily during 12 days of treatment and the results are presented in FIG. 1, which is a body weight curve graph. This illustrates a 7% reduced weight gain in Compound 22 administered ob/ob mice, despite unaltered food intake.

A short description of data set [3]: Mouse microsomal metabolism assay. In kind it is in vitro ADME. The following applies: liver microsomes; mouse hepatic microsomes, 37° C., phosphate buffer pH 7.4, NADPH regenerating system; read-out: Mouse t½. The procedure: Selected GST2 Inhibitors from Formula I Assessed in Mouse Microsomal Metabolism Assay
Selected GST2 inhibitors of General Formula (I) were screened in a mouse hepatic microsome assay to determine microsomal metabolism.
Test Articles were prepared in 50% acetonitrile.
Mouse hepatic microsomes supplied by BD GenTest Inc or an equivalent reputable supplier.
Test Articles are added to incubation plates containing phosphate buffer pH 7.4 and microsomes at a suitable protein concentration. Incubation plates are placed on a shaking water bath at 37° C. for 5 minutes pre-incubation. An aliquot of the reaction mixture is taken and added to acetonitrile (3:1). This is designated time […]. NADPH regenerating system in phosphate buffer pH 7.4 is added to initiate reactions. Aliquots from the incubation wells are taken at a number of time points and added to acetonitrile. Control incubations contained no microsomes or compounds with known microsomal stabilities. Samples were subject to centrifugation to remove denatured protein and the supernatants were analysed by LCMS.
Half lives were calculated from the log vs time transformed data according to the following equation: […]
Where λ is the slope of the linear regression line under first order (Test Article concentration <Km) conditions.
On the technique in general: Microsomes from liver hold many membrane-bound enzymes, among them those of drug oxidation.

The mark [4] stands for this setting: Table 1, read-out: GST2 IC50 Range.
The mark [5] stands for this setting: Table 3, read-out: GST2 IC50 range.
[6] abbreviates: given beside the compound name in Examples 1 to 167, read-out: Potency Range (GST2 IC50).

T1 sequence (O60760 whole entry): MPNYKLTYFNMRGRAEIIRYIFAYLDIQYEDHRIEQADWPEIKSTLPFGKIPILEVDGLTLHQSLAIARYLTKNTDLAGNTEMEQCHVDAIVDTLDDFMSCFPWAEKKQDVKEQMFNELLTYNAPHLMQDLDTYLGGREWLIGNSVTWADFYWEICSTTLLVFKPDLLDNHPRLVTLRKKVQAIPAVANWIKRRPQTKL
Chain of K+ATP channel (Q09429 whole entry): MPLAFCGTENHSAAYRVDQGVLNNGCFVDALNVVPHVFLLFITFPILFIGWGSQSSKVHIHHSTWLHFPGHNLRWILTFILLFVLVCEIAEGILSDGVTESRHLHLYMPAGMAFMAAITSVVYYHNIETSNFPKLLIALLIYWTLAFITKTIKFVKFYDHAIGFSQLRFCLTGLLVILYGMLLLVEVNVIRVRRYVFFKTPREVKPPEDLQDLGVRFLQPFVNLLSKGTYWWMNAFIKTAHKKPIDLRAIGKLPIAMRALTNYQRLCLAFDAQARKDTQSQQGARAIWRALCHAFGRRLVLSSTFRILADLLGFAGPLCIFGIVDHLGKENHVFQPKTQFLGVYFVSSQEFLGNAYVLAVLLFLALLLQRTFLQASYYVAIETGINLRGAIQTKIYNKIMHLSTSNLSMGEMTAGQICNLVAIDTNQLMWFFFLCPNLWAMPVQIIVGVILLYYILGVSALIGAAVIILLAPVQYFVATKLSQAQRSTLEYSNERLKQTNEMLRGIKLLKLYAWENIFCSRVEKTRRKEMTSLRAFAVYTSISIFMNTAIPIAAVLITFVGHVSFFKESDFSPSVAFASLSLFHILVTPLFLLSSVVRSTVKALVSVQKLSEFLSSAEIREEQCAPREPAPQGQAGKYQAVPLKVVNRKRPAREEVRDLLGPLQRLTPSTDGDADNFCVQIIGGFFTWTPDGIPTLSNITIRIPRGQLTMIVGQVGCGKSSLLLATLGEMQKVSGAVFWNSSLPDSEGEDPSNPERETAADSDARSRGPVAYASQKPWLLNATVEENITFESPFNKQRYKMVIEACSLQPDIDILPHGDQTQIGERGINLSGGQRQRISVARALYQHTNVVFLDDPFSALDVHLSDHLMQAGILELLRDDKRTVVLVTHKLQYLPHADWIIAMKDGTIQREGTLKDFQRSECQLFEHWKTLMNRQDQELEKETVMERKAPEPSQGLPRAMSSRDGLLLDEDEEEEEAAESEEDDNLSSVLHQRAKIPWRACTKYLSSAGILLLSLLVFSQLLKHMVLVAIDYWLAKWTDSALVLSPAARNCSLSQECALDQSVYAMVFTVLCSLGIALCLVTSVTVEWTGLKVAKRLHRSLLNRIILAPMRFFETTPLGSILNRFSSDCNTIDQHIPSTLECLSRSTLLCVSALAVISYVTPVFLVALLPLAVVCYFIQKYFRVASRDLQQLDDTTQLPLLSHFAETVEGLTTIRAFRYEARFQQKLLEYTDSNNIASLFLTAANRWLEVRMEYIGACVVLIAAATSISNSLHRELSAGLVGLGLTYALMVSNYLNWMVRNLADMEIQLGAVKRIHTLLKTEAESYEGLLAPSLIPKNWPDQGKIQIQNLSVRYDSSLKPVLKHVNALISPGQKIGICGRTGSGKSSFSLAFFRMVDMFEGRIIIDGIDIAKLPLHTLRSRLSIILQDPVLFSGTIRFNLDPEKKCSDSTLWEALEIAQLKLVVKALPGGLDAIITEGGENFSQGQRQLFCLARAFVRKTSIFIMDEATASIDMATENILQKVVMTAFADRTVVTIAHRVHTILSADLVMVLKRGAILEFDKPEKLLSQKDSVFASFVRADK
Chain of K+ATP channel (P70673 whole entry partner): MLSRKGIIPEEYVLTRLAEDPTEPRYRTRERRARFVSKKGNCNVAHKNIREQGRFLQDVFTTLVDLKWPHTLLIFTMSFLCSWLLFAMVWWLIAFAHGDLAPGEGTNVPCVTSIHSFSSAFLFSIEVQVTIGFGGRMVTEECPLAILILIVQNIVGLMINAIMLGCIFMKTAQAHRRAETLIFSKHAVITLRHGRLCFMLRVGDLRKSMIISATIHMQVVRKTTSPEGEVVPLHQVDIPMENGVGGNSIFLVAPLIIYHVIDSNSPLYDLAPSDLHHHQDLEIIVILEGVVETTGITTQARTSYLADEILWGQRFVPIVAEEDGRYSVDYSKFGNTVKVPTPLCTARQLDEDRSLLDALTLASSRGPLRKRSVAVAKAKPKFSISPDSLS

In the case of `O=C(Nc1ccc(N2CCN(C(=O)OC3CCOC3)CC2)c(F)c1)N1CCN(C(=O)c2cccc(F)c2)CC1` (racemic) [Compound 59, 4-(2-Fluoro-4-{[4-(3-fluoro-benzoyl)-piperazine-1-carbonyl]-amino}-phenyl)-piperazine-1-carboxylic acid tetrahydro-furan-3-yl ester], the IC50 in data set [1] (setting [4]), in data set [1] (setting [5]) and in data set [1] (setting [6]) was 11 to 100 nM in each case. Moreover, the inhibition at 10 µM on K+ATP channel was determined as 15%. In addition, on K+ATP channel, the “K+ATP Channel (% Inhibition of Control Specific Binding)” value turned out to be 12%. On PPARγ (h), the “PPARγ (% Inhibition of Control Specific Binding)” value turned out to be 15%.

As for `O=C(Nc1ccc(C(F)(F)F)cc1)N1CCN(C(=O)c2cccc(F)n2)CC1` [Compound 22, 4-(6-Fluoro-pyridine-2-carbonyl)-piperazine-1-carboxylic acid (4-trifluoromethyl-phenyl)-amide], the IC50 in data set [1] (setting [4]), in data set [1] (setting [5]) and in data set [1] (setting [6]) was 101 to 1000 nM each time. The inhibition at 10 µM on K+ATP channel came to 1%. At K+ATP channel, the “K+ATP Channel (% Inhibition of Control Specific Binding)” value came to 14%. Also, the “PPARγ (% Inhibition of Control Specific Binding)” value on PPARγ (h) is listed as 1%. The reduced weight gain in data set [2] came to 7%. Besides, the half-life in data set [3] was > 1 h.

Take `Cc1nc(-c2cccc(NC(=O)N3CCN(C(=O)c4cccc(F)c4)CC3)c2)no1` [Compound 30, 4-(3-Fluoro-benzoyl)-piperazine-1-carboxylic acid [3-(5-methyl-[1,2,4]oxadiazol-3-yl)-phenyl]-amide]: the IC50 in data set [1] (setting [4]), in data set [1] (setting [5]) and in data set [1] (setting [6]) was 11 to 100 nM in each case. Further, the inhibition at 10 µM at K+ATP channel was found to be 16%. For the same molecule, the “K+ATP Channel (% Inhibition of Control Specific Binding)” value at K+ATP channel was 13%. Further, the “PPARγ (% Inhibition of Control Specific Binding)” value at PPARγ (h) stood at 16%.

For the molecule `O=C(Nc1nc(-c2ccccc2)cs1)N1CCN(C(=O)c2cccc(F)c2)CC1` [Compound 69, 4-(3-Fluoro-benzoyl)-piperazine-1-carboxylic acid (4-phenyl-thiazol-2-yl)-amide], the IC50 in data set [1] (setting [4]), in data set [1] (setting [5]) and in data set [1] (setting [6]) was 11 to 100 nM in each case. The inhibition at 10 µM on K+ATP channel was -22%. Moreover, at K+ATP channel, the “K+ATP Channel (% Inhibition of Control Specific Binding)” value is listed as −13%. Also, the “PPARγ (% Inhibition of Control Specific Binding)” value at PPARγ (h) is −22%.

`Cn1cnnc1-c1cccc(NC(=O)N2CCN(C(=O)c3cccc(F)c3)CC2)c1` [Compound 76, 4-(3-Fluoro-benzoyl)-piperazine-1-carboxylic acid [3-(4-methyl-4H-[1,2,4]triazol-3-yl)-phenyl]-amide]: the IC50 is 11 to 100 nM in data set [1] (setting [4]), 11 to 100 nM in data set [1] (setting [5]) and 101 to 1000 nM in data set [1] (setting [6]). Also, the inhibition at 10 µM on K+ATP channel was found to be 20%. Also, the “K+ATP Channel (% Inhibition of Control Specific Binding)” value on K+ATP channel is −2%. Further, the “PPARγ (% Inhibition of Control Specific Binding)” value at PPARγ (h) is recorded as 20%.

Regarding `O=C(Nc1cc(C(F)(F)F)ccc1Cl)N1CCN(C(=O)c2ccco2)CC1` [Compound III, 4-(Furan-2-carbonyl)-piperazine-1-carboxylic acid (2-chloro-5-trifluoromethyl-phenyl)-amide, reference compound], in data set [1] (setting [4]), the IC50 fell in the range of 101 to 1000 nM. For the same molecule, at K+ATP channel, the inhibition at 10 µM was -8%.

`O=C(c1ccco1)N1CCN(C(=S)Nc2cc(Cl)cc(Cl)c2)CC1` [Compound IV, 4-(Furan-2-carbonyl)-piperazine-1-carbothioic acid (3,5-dichloro-phenyl)-amide, reference compound]: in data set [1] (setting [4]), the IC50 fell in the range of 101 to 1000 nM. For the same molecule, the inhibition at 10 µM at K+ATP channel is -7%.

As to `O=C(c1ccccc1)N1CCN(C(=S)Nc2cc(C(F)(F)F)cc(C(F)(F)F)c2)CC1` [Compound IX, 4-Benzoyl-piperazine-1-carbothioic acid (3,5-bis-trifluoromethyl-phenyl)-amide, reference compound], the IC50 in data set [1] (setting [4]) is 101 to 1000 nM. Further, the inhibition at 10 µM at K+ATP channel is 10%.

Regarding `O=C(c1ccco1)N1CCN(C(=S)Nc2cc(C(F)(F)F)ccc2Cl)CC1` [Compound V, 4-(Furan-2-carbonyl)-piperazine-1-carbothioic acid (2-chloro-5-trifluoromethyl-phenyl)-amide, reference compound], in data set [1] (setting [4]), the IC50 is 101 to 1000 nM. Moreover, the inhibition at 10 µM on K+ATP channel was -20%.

As for `O=C(Nc1cc(Cl)cc(Cl)c1)N1CCN(C(=O)c2ccccc2)CC1` [Compound VII, 4-Benzoyl-piperazine-1-carboxylic acid (3,5-dichloro-phenyl)-amide, reference compound], the IC50 in data set [1] (setting [4]) lay in the range of 11 to 100 nM. Moreover, the inhibition at 10 µM on K+ATP channel was -10%.

On to `O=C(Nc1cc(C(F)(F)F)ccc1Cl)N1CCN(C(=O)c2ccccc2)CC1` [Compound VIII, 4-Benzoyl-piperazine-1-carboxylic acid (2-chloro-5-trifluoromethyl-phenyl)-amide, reference compound], for which the IC50 in data set [1] (setting [4]) was in the range of 101 to 1000 nM. The inhibition at 10 µM on K+ATP channel is -3%.

On to `O=C(c1ccccc1)N1CCN(C(=S)Nc2cc(Cl)cc(Cl)c2)CC1` [Compound X, 4-Benzoyl-piperazine-1-carbothioic acid (3,5-dichloro-phenyl)-amide, reference compound], for which the IC50 in data set [1] (setting [4]) lay in the range of 101 to 1000 nM. Also, at K+ATP channel, the inhibition at 10 µM is -10%.

As to `O=C(c1ccccc1)N1CCN(C(=S)Nc2cc(C(F)(F)F)ccc2Cl)CC1` [Compound XI, 4-Benzoyl-piperazine-1-carbothioic acid (2-chloro-5-trifluoromethyl-phenyl)-amide, reference compound], the IC50 in data set [1] (setting [4]) lay in the range of 11 to 100 nM. In addition, on K+ATP channel, the inhibition at 10 µM is -12%.

With `O=C(c1ccccc1)N1CCN(C(=S)Nc2ccc(C(F)(F)F)cc2)CC1` [Compound XII, 4-Benzoyl-piperazine-1-carbothioic acid (4-trifluoromethyl-phenyl)-amide, reference compound], in data set [1] (setting [4]), the IC50 fell in the range of 11 to 100 nM. Further, the inhibition at 10 µM at K+ATP channel is -14%.

Broadly, the IC50 is the point on the concentration scale where inhibition reaches its midpoint. For orientation: inhibition means the drop in the measured response relative to a control, in per cent.
